Experimental data from patent US6545028B2, “Chemical compounds having ion channel blocking activity for the treatment of immune dysfunction” (NeuroSearch A/S, priority 1997, dated 2003).

How the values were obtained:
[1] = biological target: human placenta Ca^2+-activated, intermediate conductance potassium channel protein (IKCa) (Homo sapiens, UniProt O15554); assay: Whole cell patch clamp on HEK293 or CHO cells transfected with the human IKCa channel; type: cell-based; conditions: 1 μM Clotrimazole added to the bath solution; reversed by washout
Experimental: HEK293 or CHO tissue culture cells were grown in DMEM (Dulbecco's Modified Eagle Medium) supplemented with 10% FCS (foetal calf serum) at 37° C. in 5% CO2. One day prior to transfection, 10^6 cells were plated in a cell culture T25 flask. The following day, cells were transfected using lipofection (20 μL Lipofectamin™, Life Technologies, with 2.5 μg of the plasmid pNS2Z_hIK2 in a total volume of 540 μL). The lipofection mixture was overlaid on the cells and incubated at 37° C. for 5 hours.
The cells were then rinsed with regular media and plated to a 30 mm culture dish. 18-48 hours after, transfected cells were assayed for the presence of Ca^2+-activated, intermediate conductance potassium channel protein by electrophysiological measurements.
Whole cell currents were recorded using a pipette solution of 144 mM KCl, 1 mM EGTA, 9 mM NTA, 1.085 mM CaCl2, 5.54 mM MgCl2, and 10 mM HEPES (pH 7.2) and a bath solution of 144 mM KCl, 2 mM CaCl2, 1 mM MgCl2, 0.01% (w/v) BSA and 10 mM HEPES (pH=7.4). Current traces were recorded from cells containing human Ca^2+-activated, intermediate conductance potassium channels after application of voltage ramps (−100 mV to +100 mV, 200 ms duration).

T cells = assay: Inhibition of antigen induced T cell proliferation ([^3H]thymidine incorporation); type: cell-based; conditions: Antigen (crude Candida albicans extract, 10 μg/ml), 144 hours culture
Experimental: The chemical compounds used according to the invention prevent immunological proliferation by selective inhibition of the Ca^2+-activated K-channels in T- and B-lymphocytes. This effect may be verified using various proliferation assays. In this experiment the proliferative assay described by Ødum et al. [Ødum N, Kanner S B, Ledbetter J A, & Svejgaard A; J. Immunol. 1993 150 (12) 5289-5298] was used.
Assays were performed in culture medium (RPMI 1640; available from Gibco, Grand island, N.Y.) supplemented with 10% pooled human serum, 2 mM L-glutamine, 100 μg/ml penicillin, and 100 μg/ml streptomycin (available from Novo Nordisk, Copenhagen, Denmark) in 96-well round bottom tissue culture plates (available from Nunc, Roskilde, Denmark) with a final volume of 200 μl.
T cells were preincubated for three hours with the test compounds before addition of antigen (crude Candida albicans extract, 10 μg/ml). T cells were cultured at 5×10^4 cells/well for 144 hours. Twelve hours before harvest, [^3H]thymidine ([…]) was added. The cells were harvested onto glass fibre filters, and the [^3H]thymidine incorporation was measured in a scintillation counter. The results were expressed as mean counts per minute (cpm) from triplicate cultures.

In the case of `Clc1ccccc1C(c1ccccc1)(c1ccccc1)n1ccnc1` [Clotrimazole, 1-[(2-chlorophenyl)-diphenyl-methyl]-1H-imidazole], the “Effect on the Ca^2+-activated potassium current” value [1] is reported as “inhibition of the Ca^2+-activated potassium current”, the “T Cell Proliferation” value (T cells; test compound 1 μM) is reported as 5.8 cpm × 10^−3 and the “T Cell Proliferation” value (T cells; test compound 5 μM) is reported as 4.2 cpm × 10^−3. The “T Cell Proliferation” value (T cells; test compound 10 μM) was 1.8 cpm × 10^−3.
In the case of `CCOC(=O)C1=C(C)NC(C)=C(C(=O)OC)C1c1cccc([N+](=O)[O-])c1` (stereo not shown) [Nitrendipine, 1,4-dihydro-2,6-dimethyl-4-(3-nitrophenyl)pyridine-3,5-dicarboxylic acid ethyl methyl ester], the “T Cell Proliferation” value (T cells; test compound 1 μM) is reported as 5.6 cpm × 10^−3, the “T Cell Proliferation” value (T cells; test compound 5 μM) is reported as 3.8 cpm × 10^−3 and the “T Cell Proliferation” value (T cells; test compound 10 μM) is reported as 4.0 cpm × 10^−3.
